{"source": "paper PMC7381729", "about": "“A new class of PentixaFor- and PentixaTher-based theranostic agents with enhanced CXCR4-targeting efficiency” (Theranostics, 2020)", "assay": "Biodistribution in Daudi xenograft bearing mice", "assay_type": "in vivo, mouse", "conditions": "female, CB-17 SCID, mouse, iv, total radioactivity; for tissue uptake at 6 h: 6h p.i.; for tissue uptake at 6 h / tissue uptake at 48 h: i.v., n=4-5; for tissue uptake at 6 h / tissue uptake at 48 h / tissue to tissue ratio at 48 h: means ± SD; for tissue uptake at 48 h / tissue to tissue ratio at 48 h: 48h p.i.; for tissue uptake at 1 h: 1h p.i., coinjection of 50 µg AMD3100/animal, n=1; for tissue to tissue ratio at 48 h: n=4-5 animals", "in_short": "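Female CB-17 SCID mice with Daudi xenografts (n=4-5) received 5-10 MBq (0.08-0.11 nmol) ^68Ga- or ^177Lu-labelled ligand i.v.; blocking by coinjected 50 µg AMD3100. Organs counted by γ-counter at 1, 6 and 48 h p.i.; %ID/g (mean ± SD).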", "key": {"[1]": {"conditions": "adrenals, read-out: Biodistribution adrenals"}, "[2]": {"conditions": "blood, read-out: Biodistribution blood"}, "[3]": {"conditions": "colon, read-out: Biodistribution colon"}, "[4]": {"conditions": "femur, read-out: Biodistribution femur"}, "[5]": {"conditions": "heart, read-out: Biodistribution heart"}, "[6]": {"conditions": "kidney, read-out: Biodistribution kidney"}, "[7]": {"conditions": "liver, read-out: Biodistribution liver"}, "[8]": {"conditions": "lung, read-out: Biodistribution lung"}, "[9]": {"conditions": "muscle, read-out: Biodistribution muscle"}, "[10]": {"conditions": "pancreas, read-out: Biodistribution pancreas"}, "[11]": {"conditions": "small intestine, read-out: Biodistribution small intestine"}, "[12]": {"conditions": "spleen, read-out: Biodistribution spleen"}, "[13]": {"conditions": "stomach, read-out: Biodistribution stomach"}, "[14]": {"conditions": "tumor (Daudi xenograft), read-out: Biodistribution tumor (Daudi xenograft)"}}, "note": "Where two headings read alike, the source gives them in different places. Where a SMILES comes first, the peptide text is derived from it. Side-chain parts run from the residue outwards. [ ]: non-standard residue; d: D form. The star is where a group is joined. DOTA = O=C(O)CN1CCN(CC(=O)O)CCN(CC(=O)*)CCN(CC(=O)O)CC1; 2Nal = N[C@@H](Cc1ccc2ccccc2c1)C(=O)O; dNMeOrn = CN[C@H](CCCN)C(=O)O; 4Abz = Nc1ccc(C(=O)O)cc1", "data": [{"smiles": "C[C@@H](NC(=O)[C@@H](CCCNC(=N)N)NC(=O)CN1CCN(CC(=O)O)CCN(CC(=O)O)CCN(CC(=O)O)CC1)C(=O)Nc1ccc(C(=O)NCCC[C@@H]2C(=O)N[C@@H](CCCNC(=N)N)C(=O)N[C@@H](Cc3ccc4ccccc4c3)C(=O)NCC(=O)N[C@H](Cc3ccc(O)cc3)C(=O)N2C)cc1", "note": "[[^177Lu]DOTA-r-a-ABA-CPCR4, metal not drawn] (cyclo([2Nal]G[dY][dNMeOrn]([4Abz-dA-dR-DOTA])R))", "values": [{"measurement": "tissue uptake at 6 h", "setting": "[1]", "result": "0.51 ± 0.12", "unit": "%ID/g"}, {"measurement": "tissue uptake at 48 h", "setting": "[1]", "result": "0.33 ± 0.08", "unit": "%ID/g"}, {"measurement": "tissue uptake at 1 h", "setting": "adrenals, with AMD3100, 50 µg per animal, coinjected (CXCR4 competition), read-out: Biodistribution adrenals, + AMD3100", "result": 1.22, "unit": "%ID/g"}, {"measurement": "tissue uptake at 6 h", "setting": "[2]", "result": "0.05 ± 0.01", "unit": "%ID/g"}, {"measurement": "tissue uptake at 48 h", "setting": "[2]", "result": 0.01, "unit": "%ID/g"}, {"measurement": "tissue uptake at 1 h", "setting": "blood, with AMD3100, 50 µg per animal, coinjected (CXCR4 competition), read-out: Biodistribution blood, + AMD3100", "result": 1.9, "unit": "%ID/g"}, {"measurement": "tissue uptake at 6 h", "setting": "[3]", "result": "0.65 ± 0.3", "unit": "%ID/g"}, {"measurement": "tissue uptake at 48 h", "setting": "[3]", "result": "0.44 ± 0.22", "unit": "%ID/g"}, {"measurement": "tissue uptake at 1 h", "setting": "colon, with AMD3100, 50 µg per animal, coinjected (CXCR4 competition), read-out: Biodistribution colon, + AMD3100", "result": 0.74, "unit": "%ID/g"}, {"measurement": "tissue uptake at 6 h", "setting": "[4]", "result": "0.3 ± 0.05", "unit": "%ID/g"}, {"measurement": "tissue uptake at 48 h", "setting": "[4]", "result": "0.29 ± 0.05", "unit": "%ID/g"}, {"measurement": "tissue uptake at 1 h", "setting": "femur, with AMD3100, 50 µg per animal, coinjected (CXCR4 competition), read-out: Biodistribution femur, + AMD3100", "result": 0.74, "unit": "%ID/g"}, {"measurement": "tissue uptake at 1 h", "setting": "heart, read-out: Biodistribution heart, + AMD3100", "result": 1.07, "unit": "%ID/g"}, {"measurement": "tissue uptake at 6 h", "setting": "[5]", "result": "0.13 ± 0.02", "unit": "%ID/g"}, {"measurement": "tissue uptake at 48 h", "setting": "[5]", "result": "0.08 ± 0.01", "unit": "%ID/g"}, {"measurement": "tissue uptake at 6 h", "setting": "[6]", "result": "7.1 ± 2.06", "unit": "%ID/g"}, {"measurement": "tissue uptake at 48 h", "setting": "[6]", "result": "3.05 ± 0.15", "unit": "%ID/g"}, {"measurement": "tissue uptake at 1 h", "setting": "kidney, with AMD3100, 50 µg per animal, coinjected (CXCR4 competition), read-out: Biodistribution kidney, + AMD3100", "result": 10.3, "unit": "%ID/g"}, {"measurement": "tissue uptake at 1 h", "setting": "liver, read-out: Biodistribution liver, + AMD3100", "result": 5.46, "unit": "%ID/g"}, {"measurement": "tissue uptake at 6 h", "setting": "[7]", "result": "11.3 ± 2.83", "unit": "%ID/g"}, {"measurement": "tissue uptake at 48 h", "setting": "[7]", "result": "8.99 ± 1.62", "unit": "%ID/g"}, {"measurement": "tissue uptake at 1 h", "setting": "lung, read-out: Biodistribution lung, + AMD3100", "result": 3.34, "unit": "%ID/g"}, {"measurement": "tissue uptake at 6 h", "setting": "[8]", "result": "0.27 ± 0.06", "unit": "%ID/g"}, {"measurement": "tissue uptake at 48 h", "setting": "[8]", "result": "0.19 ± 0.08", "unit": "%ID/g"}, {"measurement": "tissue uptake at 6 h", "setting": "[9]", "result": "0.04 ± 0.01", "unit": "%ID/g"}, {"measurement": "tissue uptake at 48 h", "setting": "[9]", "result": 0.02, "unit": "%ID/g"}, {"measurement": "tissue uptake at 1 h", "setting": "muscle, with AMD3100, 50 µg per animal, coinjected (CXCR4 competition), read-out: Biodistribution muscle, + AMD3100", "result": 0.38, "unit": "%ID/g"}, {"measurement": "tissue uptake at 6 h", "setting": "[10]", "result": "0.08 ± 0.02", "unit": "%ID/g"}, {"measurement": "tissue uptake at 48 h", "setting": "[10]", "result": "0.07 ± 0.01", "unit": "%ID/g"}, {"measurement": "tissue uptake at 1 h", "setting": "pancreas, with AMD3100, 50 µg per animal, coinjected (CXCR4 competition), read-out: Biodistribution pancreas, + AMD3100", "result": 0.61, "unit": "%ID/g"}, {"measurement": "tissue uptake at 6 h", "setting": "[11]", "result": "0.3 ± 0.06", "unit": "%ID/g"}, {"measurement": "tissue uptake at 48 h", "setting": "[11]", "result": "0.16 ± 0.11", "unit": "%ID/g"}, {"measurement": "tissue uptake at 1 h", "setting": "small intestine, with AMD3100, 50 µg per animal, coinjected (CXCR4 competition), read-out: Biodistribution small intestine, + AMD3100", "result": 1.36, "unit": "%ID/g"}, {"measurement": "tissue uptake at 6 h", "setting": "[12]", "result": "1.41 ± 0.24", "unit": "%ID/g"}, {"measurement": "tissue uptake at 48 h", "setting": "[12]", "result": "1.06 ± 0.33", "unit": "%ID/g"}, {"measurement": "tissue uptake at 1 h", "setting": "spleen, with AMD3100, 50 µg per animal, coinjected (CXCR4 competition), read-out: Biodistribution spleen, + AMD3100", "result": 1.11, "unit": "%ID/g"}, {"measurement": "tissue uptake at 6 h", "setting": "[13]", "result": "0.25 ± 0.07", "unit": "%ID/g"}, {"measurement": "tissue uptake at 48 h", "setting": "[13]", "result": "0.19 ± 0.13", "unit": "%ID/g"}, {"measurement": "tissue uptake at 1 h", "setting": "stomach, with AMD3100, 50 µg per animal, coinjected (CXCR4 competition), read-out: Biodistribution stomach, + AMD3100", "result": 2.46, "unit": "%ID/g"}, {"measurement": "tissue uptake at 6 h", "setting": "[14]", "result": "13.6 ± 3.33", "unit": "%ID/g"}, {"measurement": "tissue uptake at 48 h", "setting": "[14]", "result": "8.81 ± 0.99", "unit": "%ID/g"}, {"measurement": "tissue uptake at 1 h", "setting": "tumor (Daudi xenograft), with AMD3100, 50 µg per animal, coinjected (CXCR4 competition), read-out: Biodistribution tumor, + AMD3100", "result": 3.04, "unit": "%ID/g"}, {"measurement": "tissue to tissue ratio at 48 h", "setting": "tumor / blood, read-out: Tumor/organ ratio t/blood", "result": "949 ± 146"}, {"measurement": "tissue to tissue ratio at 48 h", "setting": "tumor / colon, read-out: Tumor/organ ratio t/colon", "result": "20 ± 10"}, {"measurement": "tissue to tissue ratio at 48 h", "setting": "tumor / heart, read-out: Tumor/organ ratio t/heart", "result": "111 ± 20"}, {"measurement": "tissue to tissue ratio at 48 h", "setting": "tumor / kidney, read-out: Tumor/organ ratio t/kidney", "result": "2.9 ± 0.4"}, {"measurement": "tissue to tissue ratio at 48 h", "setting": "tumor / liver, read-out: Tumor/organ ratio t/liver", "result": "1 ± 0.2"}, {"measurement": "tissue to tissue ratio at 48 h", "setting": "tumor / lung, read-out: Tumor/organ ratio t/lung", "result": "47 ± 22"}, {"measurement": "tissue to tissue ratio at 48 h", "setting": "tumor / muscle, read-out: Tumor/organ ratio t/muscle", "result": "413 ± 100"}, {"measurement": "tissue to tissue ratio at 48 h", "setting": "tumor / small intestine, read-out: Tumor/organ ratio t/small intestine", "result": "55 ± 36"}, {"measurement": "tissue to tissue ratio at 48 h", "setting": "tumor / spleen, read-out: Tumor/organ ratio t/spleen", "result": "8.3 ± 2.8"}, {"measurement": "tissue to tissue ratio at 48 h", "setting": "tumor / stomach, read-out: Tumor/organ ratio t/stomach", "result": "46 ± 32"}]}]}
